Test results taken from ChEMBL document CHEMBL1201862, “PubChem BioAssay data set” (2004).
Structures can show the parent of a compound that is named as a salt.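 48-hour exposure; five concentrations; linearly interpolated endpoints. GI50 = concentration required for 50% inhibition of growth.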 Activity calls are given as the source filed them. No stated cut-off is given here; in the data, active = GI50 up to about 1.1 µM and inactive = higher.

Key:
Experiment in all cases: growth of human tumour cells (NCI), 48 h
[1] = tested on: SF-295
[2] = tested on: SF-268
[3] = tested on: CCRF-CEM
[4] = tested on: OVCAR-8
[5] = tested on: IGROV-1
[6] = tested on: SK-MEL-28
[7] = tested on: SW-620
[8] = tested on: LXFL 529
[9] = tested on: MOLT-4
[10] = tested on: M14
[11] = tested on: NCI-H522
[12] = tested on: UACC-257
[13] = tested on: NCI-H460
[14] = tested on: SK-MEL-5
[15] = tested on: SNB-19
[16] = tested on: M19-MEL
[17] = tested on: HCC 2998
[18] = tested on: K562
[19] = tested on: Malme-3M
[20] = tested on: NCI-H23
[21] = tested on: TK-10
[22] = tested on: UO-31
[23] = tested on: DLD-1
[24] = tested on: NCI-H226
[25] = tested on: SR
[26] = tested on: SN12C
[27] = tested on: HT-29
[28] = tested on: SNB-75
[29] = tested on: RXF 393
[30] = tested on: OVCAR-5
[31] = tested on: RXF 631
[32] = tested on: HCT-116
[33] = tested on: SK-OV-3
[34] = tested on: XF498
[35] = tested on: SF-539
[36] = tested on: ACHN
[37] = tested on: A498
[38] = tested on: A549
[39] = tested on: 786-0
[40] = tested on: HOP-62
[41] = tested on: HOP-18
[42] = tested on: KM-20L2
[43] = tested on: EKVX
[44] = tested on: U-251
[45] = tested on: RPMI-8226
[46] = tested on: HCT-15
[47] = tested on: KM12
[48] = tested on: SK-MEL-2
[49] = tested on: SNB-78
[50] = tested on: DMS-114
[51] = tested on: OVCAR-3
[52] = tested on: LOX IMVI
[53] = tested on: UACC-62
[54] = tested on: HOP-92
[55] = tested on: OVCAR-4
[56] = tested on: DMS-273
[57] = tested on: CAKI-1
[58] = tested on: HL-60
[59] = tested on: COLO 205

Measured: GI50

CC(C)(C)C(=O)/C=C/c1cccc(Oc2ccccc2)c1
19.4 µM: [46]
inactive: [1] 11.8 µM | [2] > 10 µM | [3] 4.08 µM | [4] 13.6 µM | [5] 28.2 µM | [6] 16.4 µM | [7] > 10 µM | [8] 18.1 µM | [9] 14.6 µM | [10] 18.6 µM | [11] 15.3 µM | [12] 14 µM | [13] 16 µM | [14] 14.4 µM | [15] 15.5 µM | [16] 16.9 µM | [17] 19 µM | [18] 5.93 µM | [19] 18.8 µM | [20] > 10 µM | [21] > 10 µM | [22] 14.4 µM | [23] 11.5 µM | [24] 18.2 µM | [25] 4.2 µM | [26] 13.2 µM | [27] 9.12 µM | [28] 12.4 µM | [29] 15 µM | [30] 18.4 µM | [31] 28.1 µM | [32] 10.5 µM | [33] 41 µM | [34] 18.8 µM | [35] 20.1 µM | [36] 15.2 µM | [37] 20 µM | [38] 21.1 µM | [39] 16.7 µM | [40] 45 µM | [41] 16.6 µM | [42] 14.3 µM | [43] 18.7 µM | [44] 11.3 µM | [45] 3.94 µM | [47] 11.6 µM | [48] 13.1 µM | [49] 14.2 µM

CNC(C)Cc1ccccc1OC (stereo unspecified) [METHOXYPHENAMINE HYDROCHLORIDE]
> 100 µM: [46]
inactive: [1] > 100 µM | [2] > 100 µM | [3] > 100 µM | [4] > 100 µM | [5] > 100 µM | [6] > 100 µM | [7] > 100 µM | [8] > 100 µM | [50] > 100 µM | [9] > 100 µM | [10] > 100 µM | [51] > 100 µM | [11] > 100 µM | [12] > 100 µM | [52] > 100 µM | [13] > 100 µM | [53] > 100 µM | [54] > 100 µM | [14] > 100 µM | [15] > 100 µM | [17] > 100 µM | [18] > 100 µM | [55] > 100 µM | [19] > 100 µM | [20] > 100 µM | [21] > 100 µM | [22] > 100 µM | [23] > 100 µM | [24] > 100 µM | [26] > 100 µM | [56] > 100 µM | [27] > 100 µM | [57] > 100 µM | [28] > 100 µM | [58] > 100 µM | [29] > 100 µM | [30] > 100 µM | [31] > 100 µM | [32] > 100 µM | [33] > 100 µM | [34] > 100 µM | [35] > 100 µM | [36] > 100 µM | [37] > 100 µM | [38] > 100 µM | [39] > 100 µM | [59] > 100 µM | [40] > 100 µM | [41] > 100 µM | [42] > 100 µM | [43] > 100 µM | [44] > 100 µM | [45] > 100 µM | [47] > 100 µM | [48] > 100 µM | [49] > 100 µM
